Activity calls are given as the source filed them.
Assays:
[1] = target: Alkaline phosphatase, placental type (Homo sapiens, UniProt P05187); assay: human placental alkaline phosphatase inhibition – biochemical, luminescence, confirmation (AID 1512); format: functional
[2] = target: T1, Alkaline phosphatase, tissue-nonspecific isozyme (Homo sapiens, UniProt P05186); assay: potency against alkaline phosphatase TNAP – biochemical, luminescent, dose response, SAR follow-up (AID 1056)
T1 sequence (P05186 whole entry): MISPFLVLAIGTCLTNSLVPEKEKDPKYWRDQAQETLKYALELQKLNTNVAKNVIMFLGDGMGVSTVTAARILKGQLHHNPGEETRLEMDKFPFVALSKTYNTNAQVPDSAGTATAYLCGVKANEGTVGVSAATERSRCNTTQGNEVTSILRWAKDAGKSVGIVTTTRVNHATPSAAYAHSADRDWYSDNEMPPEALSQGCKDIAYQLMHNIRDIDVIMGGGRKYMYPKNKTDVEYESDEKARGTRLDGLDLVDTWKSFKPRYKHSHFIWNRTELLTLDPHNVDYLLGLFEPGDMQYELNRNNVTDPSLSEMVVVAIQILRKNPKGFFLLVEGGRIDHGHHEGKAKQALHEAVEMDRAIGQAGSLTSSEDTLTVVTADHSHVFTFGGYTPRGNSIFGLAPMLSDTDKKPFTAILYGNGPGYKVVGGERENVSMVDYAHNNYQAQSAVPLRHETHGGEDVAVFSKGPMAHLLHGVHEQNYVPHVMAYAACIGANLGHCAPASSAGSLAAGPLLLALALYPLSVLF

[3] = target: Nucleotide-binding oligomerization domain-containing protein 2 (Homo sapiens, UniProt Q9HC29); assay: inhibition of NOD2-driven NF-kB reporter – cell-based, luminescence, uHTS, HEK293 (AID 1566); format: functional
[4] = HEK-293T viability loss after treatment – luminescence, T-cell screen hits, cytotoxicity control for TCR NF-kB inhibitor project, dose response (AID 489026); format: functional, cell-based;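 note: cells exposed to compound about 14 hours before the viability readout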
HEK293 [5] = assay: NOD2 signaling inhibitors in MDP-stimulated cells, cell-based, uHTS, luminescence (AID 2001); format: functional; conditions: Homo sapiens
HEK293 [6] = assay: cells; format: functional, cell-based; conditions: Homo sapiens
HEK293 [7] = assay: inhibition of NOD1-driven NF-kB reporter – cell-based, luminescence, uHTS, primary screen (AID 1578); format: functional; conditions: Homo sapiens
HEK293 [8] = assay: cells; format: functional, cell-based; conditions: Homo sapiens; remark: listed apart in the source
HEK293 [9] = assay: cells; format: functional, cell-based; conditions: Homo sapiens; remark: listed apart in the source
[10] = THP-1 cell cytotoxicity, dose response, cytotoxicity control for non-replicating M. tuberculosis project (AID 489025); format: functional
[11] = Vero E6 cell cytotoxicity, dose response, cytotoxicity control for non-replicating M. tuberculosis project, secondary assay (AID 492998); format: functional, VeroE6; conditions: Vero C1008
Protein skinhead-1 = target: T2, Protein skinhead-1 (Caenorhabditis elegans, UniProt P34707); format: functional
T2 sequence (P34707 whole entry): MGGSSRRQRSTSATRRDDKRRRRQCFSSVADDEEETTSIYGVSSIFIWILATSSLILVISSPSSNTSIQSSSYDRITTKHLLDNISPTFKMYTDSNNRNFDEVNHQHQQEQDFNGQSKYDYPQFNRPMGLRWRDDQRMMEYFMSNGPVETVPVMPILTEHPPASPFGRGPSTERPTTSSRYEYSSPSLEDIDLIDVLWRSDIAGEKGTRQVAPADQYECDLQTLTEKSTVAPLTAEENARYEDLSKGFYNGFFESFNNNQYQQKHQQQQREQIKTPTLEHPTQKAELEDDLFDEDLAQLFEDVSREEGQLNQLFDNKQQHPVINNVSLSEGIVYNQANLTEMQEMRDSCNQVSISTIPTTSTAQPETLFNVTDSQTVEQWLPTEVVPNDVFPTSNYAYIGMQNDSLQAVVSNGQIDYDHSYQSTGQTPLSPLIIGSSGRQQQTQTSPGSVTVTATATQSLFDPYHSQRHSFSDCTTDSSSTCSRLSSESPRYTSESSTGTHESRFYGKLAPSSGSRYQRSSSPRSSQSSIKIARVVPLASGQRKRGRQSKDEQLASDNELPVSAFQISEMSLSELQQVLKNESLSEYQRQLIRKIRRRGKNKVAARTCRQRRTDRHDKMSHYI

cells = format: functional
[12] = target: Dual specificity tyrosine-phosphorylation-regulated kinase 1A (Rattus norvegicus, UniProt Q63470); format: biochemical, Homo sapiens
[13] = target: T3, Microphthalmia-associated transcription factor (Homo sapiens, UniProt O75030); assay: reducers of TRPM1 reporter luminescence, concentration series – cell-based, SK-MEL-5, cherry-picked, set 3, MITF inhibitor project, dose response (AID 493073); format: functional;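 note: SK-MEL-5 melanoma cells with luciferase driven by the MITF target TRPM1 promoter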
T3 sequence (O75030 whole entry): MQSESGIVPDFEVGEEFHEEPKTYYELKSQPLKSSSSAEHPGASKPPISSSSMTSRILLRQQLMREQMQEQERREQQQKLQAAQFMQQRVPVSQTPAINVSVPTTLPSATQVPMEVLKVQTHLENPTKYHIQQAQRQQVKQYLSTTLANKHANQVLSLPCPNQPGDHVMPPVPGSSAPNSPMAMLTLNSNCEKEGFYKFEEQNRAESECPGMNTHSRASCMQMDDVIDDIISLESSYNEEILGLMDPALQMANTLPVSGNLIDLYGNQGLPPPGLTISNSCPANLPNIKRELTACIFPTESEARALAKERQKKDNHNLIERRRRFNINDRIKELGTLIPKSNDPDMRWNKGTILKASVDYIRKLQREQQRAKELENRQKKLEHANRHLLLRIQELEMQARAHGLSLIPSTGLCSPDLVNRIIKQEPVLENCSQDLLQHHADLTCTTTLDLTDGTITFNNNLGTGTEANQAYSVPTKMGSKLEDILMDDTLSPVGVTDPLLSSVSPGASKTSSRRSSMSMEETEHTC

Alkaline phosphatase, placental type, sequence (P05187 whole entry): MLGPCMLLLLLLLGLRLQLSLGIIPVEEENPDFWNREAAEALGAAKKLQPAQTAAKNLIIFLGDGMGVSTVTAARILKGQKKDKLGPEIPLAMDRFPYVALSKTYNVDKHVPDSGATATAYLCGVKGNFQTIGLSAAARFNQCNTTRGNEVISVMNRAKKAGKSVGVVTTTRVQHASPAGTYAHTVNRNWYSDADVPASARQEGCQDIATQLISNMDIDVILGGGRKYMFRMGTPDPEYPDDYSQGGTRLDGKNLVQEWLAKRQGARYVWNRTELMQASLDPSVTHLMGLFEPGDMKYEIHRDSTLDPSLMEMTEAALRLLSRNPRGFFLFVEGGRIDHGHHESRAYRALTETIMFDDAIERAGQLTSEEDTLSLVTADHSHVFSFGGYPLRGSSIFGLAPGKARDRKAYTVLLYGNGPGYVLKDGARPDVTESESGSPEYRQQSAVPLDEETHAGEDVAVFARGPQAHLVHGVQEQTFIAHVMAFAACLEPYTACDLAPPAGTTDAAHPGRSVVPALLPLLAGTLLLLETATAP
Nucleotide-binding oligomerization domain-containing protein 2, sequence (Q9HC29 whole entry, the tested form may be a part): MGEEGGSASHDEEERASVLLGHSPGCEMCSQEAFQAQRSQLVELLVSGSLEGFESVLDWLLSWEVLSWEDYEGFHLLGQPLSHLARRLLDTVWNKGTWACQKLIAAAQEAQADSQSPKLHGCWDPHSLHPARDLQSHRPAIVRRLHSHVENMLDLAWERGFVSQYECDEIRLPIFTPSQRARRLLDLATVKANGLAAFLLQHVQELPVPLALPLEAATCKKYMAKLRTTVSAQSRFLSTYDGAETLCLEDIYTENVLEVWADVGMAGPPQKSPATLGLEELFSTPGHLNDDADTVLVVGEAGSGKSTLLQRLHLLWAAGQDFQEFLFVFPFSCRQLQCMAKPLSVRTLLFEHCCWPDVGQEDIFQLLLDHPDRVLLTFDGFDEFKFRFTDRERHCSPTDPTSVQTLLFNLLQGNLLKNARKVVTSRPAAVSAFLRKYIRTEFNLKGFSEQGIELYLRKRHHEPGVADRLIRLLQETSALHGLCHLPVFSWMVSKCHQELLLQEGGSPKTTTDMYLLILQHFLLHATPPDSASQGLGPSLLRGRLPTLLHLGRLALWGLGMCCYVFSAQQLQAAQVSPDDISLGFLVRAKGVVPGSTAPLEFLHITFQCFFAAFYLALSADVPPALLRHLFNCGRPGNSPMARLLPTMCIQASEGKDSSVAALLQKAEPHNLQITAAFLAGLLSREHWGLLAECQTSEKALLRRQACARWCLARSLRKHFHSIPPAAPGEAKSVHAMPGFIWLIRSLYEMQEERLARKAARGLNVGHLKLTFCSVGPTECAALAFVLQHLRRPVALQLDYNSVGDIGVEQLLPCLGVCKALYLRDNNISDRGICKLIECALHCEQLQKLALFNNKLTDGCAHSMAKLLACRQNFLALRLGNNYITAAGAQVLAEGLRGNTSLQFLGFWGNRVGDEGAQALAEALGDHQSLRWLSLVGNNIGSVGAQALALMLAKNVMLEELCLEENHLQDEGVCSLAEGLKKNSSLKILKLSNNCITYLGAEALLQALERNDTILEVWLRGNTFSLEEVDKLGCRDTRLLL

Cc1cc(C(=O)NCCc2ccc(O)c(O)c2)c(C)o1
IC50 [1]: > 100 µM (inactive)
IC50 [2]: > 100 µM (inactive)

CCc1ccc2nc(Nc3nc(COC)cc(=O)[nH]3)nc(C)c2c1
IC50 [1]: > 100 µM (inactive)

CCCCN1C(=O)/C(=N\Nc2ccccc2OC)c2ccccc21
IC50 [1]: 87.9 µM (active)
IC50 [2]: 28.7 µM (active)

Cc1csc2ncnc(NC3CCN(Cc4ccccc4)CC3)c12
EC50 [3]: 7.78 µM (active)
IC50 [4]: > 80 µM (inactive)
IC50 (HEK293 [5]): 2.36 µM (active)
IC50 (HEK293 [6]): > 20 µM (inactive)
EC50 (HEK293 [7]): 1.92 µM (active)
IC50 (HEK293 [8]): 1.61 µM (active)
IC50 (HEK293 [9]): > 20 µM (inactive)

COc1ccc(CCNc2oc(COc3ccc(Br)cc3)nc2C#N)cc1OC
EC50 [3]: 12.8 µM (active)
IC50 (HEK293 [5]): 5.07 µM (active)
IC50 (HEK293 [6]): > 20 µM (inactive)
EC50 (HEK293 [7]): 10.5 µM (active)
IC50 (HEK293 [8]): 5.86 µM (active)
IC50 (HEK293 [9]): 8.84 µM (active)

O=C(Nc1nc(-c2cc(F)ccc2F)cs1)c1ccccn1
CC50 [10]: 29.4 µM (active)
CC50 [11]: > 20 µM (active)
IC50 (Protein skinhead-1): > 100 µM (inactive)
IC50 (cells): 0.83 µM (active)

CCOC(=O)CSC1=NC(=O)/C(=C/c2ccc(OC)cc2)S1
AC50 [12]: 0.395 µM (active)
AC50 [13]: 3.98 µM (active)

Source: ChEMBL document CHEMBL1201862, “PubChem BioAssay data set” (2004)
